Literature values, collected in US12336993B2, “Therapeutic benefit of suboptimally administered chemical compounds” (priority 2013, dated 2025).

How the values were obtained:
[1] = biological target: glycogen synthase kinase-33 (GSK-30) (Homo sapiens, UniProt P49841)
[2] = system: non-Hodgkin's lymphoma; conditions: literature report (Kennedy et al. 1999)
[3] = system: Hodgkin's lymphoma; conditions: literature reports (Gold et al. 1970; Kennedy et al. 1999)
[4] = system: DNA; conditions: guanine-N7 alkylation of DNA
[5] = system: chronic lymphocytic leukemia; conditions: literature reports (Kennedy & Theologides 1961; Kennedy et al. 1999)

Sequence of glycogen synthase kinase-33 (GSK-30) (P49841 whole entry): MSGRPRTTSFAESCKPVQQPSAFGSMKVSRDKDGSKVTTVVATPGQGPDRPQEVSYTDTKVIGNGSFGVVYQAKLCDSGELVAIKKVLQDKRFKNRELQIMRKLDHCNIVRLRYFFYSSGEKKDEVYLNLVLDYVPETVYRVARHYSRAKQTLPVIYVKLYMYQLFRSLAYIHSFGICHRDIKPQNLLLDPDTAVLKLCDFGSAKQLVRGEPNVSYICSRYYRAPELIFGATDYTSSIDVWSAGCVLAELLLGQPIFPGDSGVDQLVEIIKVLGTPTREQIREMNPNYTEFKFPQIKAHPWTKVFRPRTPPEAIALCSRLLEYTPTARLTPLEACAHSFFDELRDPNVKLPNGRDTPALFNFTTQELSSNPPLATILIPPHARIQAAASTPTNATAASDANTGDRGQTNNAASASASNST

concentration at which inhibition of GSK is promoted [1] [nM] | Compound | activity in non-Hodgkin's lymphoma [2] | activity in Hodgkin's lymphoma [3] | sequence preferences to alkylate [4] | activity in chronic lymphocytic leukemia [5]
5 to 50 | CN1C(=O)/C(=C2/C(=O)Nc3ccccc32)c2ccccc21 [meisoindigo] | – | – | – | –
– | O=c1[nH]cc(N(CCCl)CCCl)c(=O)[nH]1 [uracil mustard, 5-[bis(2-chloroethyl)amino]-1H-pyrimidine-2,4-dione] | active | active | 5′-YGC-3′ | active
